Source: patent publication US7026304B2, “2-alkylated-cyclodextrin derivatives: reversal agents for drug-induced neuromuscular block” (Akzo Nobel N.V., priority 2001, dated 2006)

Test system: steady-state neuromuscular block induced by the muscle relaxant rocuronium bromide (Roc)
Experiment: Reversal of neuromuscular blockade in anaesthetized guinea pigs in vivo
Parameters: species or system guinea pig
Method: Reversal of Neuromuscular Blockade in Anaesthetized Guinea Pigs in vivo Male Dunkin-Hartley guinea pigs (bodyweight: 600–900 g) were anaesthetized by i.p. administration of 10 mg/kg pentobarbitone and 1000 mg/kg urethane. After tracheotomy, the animals were artificially ventilated using a Harvard small animal ventilator. A catheter was placed into the carotid artery for continuous monitoring of arterial blood pressure and the taking of blood samples for blood gas analysis. Heart rate was derived from the blood pressure signal. The sciatic nerve was stimulated (rectangular pulses of 0.5 ms duration at 10 s (0.1 Hz) intervals at a supramaximal voltage, using a Grass S88 Stimulator) and the force of M. gastrocnemius contractions was measured using a Grass FT03 force-displacement transducer. Contractions, blood pressure and heart rate were recorded on a multichannel Grass 7D recorder. Catheters were placed in both jugular veins. One catheter was used for the continuous infusion of a neuromuscular blocking agent. […] The other catheter was used for administration of increasing doses of the reversal agent. During continuous infusion of the neuromuscular blocking agent, single doses of increasing concentration of reversal agent were given.

[1] = anaesthetized guinea pigs, rocuronium bromide-induced steady-state block
[2] = anaesthetized guinea pigs, rocuronium bromide-induced steady-state block, dose at which % max reversal was reached
[3] = anaesthetized male Dunkin-Hartley guinea pigs, rocuronium bromide infusion to steady-state block of 85–90%, reversal agent i.v. in increasing doses

Structure (SMILES) | % max reversal [1] [%] | concentration at maximum reversal [2] | ED50, dose producing 50% reversal of steady-state neuromuscular block [3] [µmol/kg] | % max reversal (guinea pig, in vivo) [%] | concentration at maximum reversal (guinea pig, in vivo) | ED50, dose producing 50% reversal of steady-state neuromuscular block (guinea pig, in vivo, iv) [µmol/kg]
O=C([O-])c1ccc(CO[C@H]2[C@H]3O[C@H]4[C@H](O)[C@@H](OCc5ccc(C(=O)[O-])cc5)[C@@H](O[C@H]5[C@H](O)[C@@H](OCc6ccc(C(=O)[O-])cc6)[C@@H](O[C@H]6[C@H](O)[C@@H](OCc7ccc(C(=O)[O-])cc7)[C@@H](O[C@H]7[C@H](O)[C@@H](OCc8ccc(C(=O)[O-])cc8)[C@@H](O[C@H]8[C@H](O)[C@@H](OCc9ccc(C(=O)[O-])cc9)[C@@H](O[C@H]9[C@H](O)[C@@H](OCc%10ccc(C(=O)[O-])cc%10)[C@@H](O[C@H]%10[C@H](O)[C@@H](OCc%11ccc(C(=O)[O-])cc%11)[C@@H](O[C@@H]([C@@H]2O)[C@@H](CO)O3)O[C@@H]%10CO)O[C@@H]9CO)O[C@@H]8CO)O[C@@H]7CO)O[C@@H]6CO)O[C@@H]5CO)O[C@@H]4CO)cc1.[Na+].[Na+].[Na+].[Na+].[Na+].[Na+].[Na+].[Na+] [Example 3, Octakis per-2-O-(4-carboxybenzyl)-γ-cyclodextrin, Na salt] | 97 | (0.8) μmol · kg^−1 | 0.20 | – | – | –
O=C([O-])c1ccccc1CO[C@H]1[C@H]2O[C@H]3[C@H](O)[C@@H](OCc4ccccc4C(=O)[O-])[C@@H](O[C@H]4[C@H](O)[C@@H](OCc5ccccc5C(=O)[O-])[C@@H](O[C@H]5[C@H](O)[C@@H](OCc6ccccc6C(=O)[O-])[C@@H](O[C@H]6[C@H](O)[C@@H](OCc7ccccc7C(=O)[O-])[C@@H](O[C@H]7[C@H](O)[C@@H](OCc8ccccc8C(=O)[O-])[C@@H](O[C@H]8[C@H](O)[C@@H](OCc9ccccc9C(=O)[O-])[C@@H](O[C@H]9[C@H](O)[C@@H](OCc%10ccccc%10C(=O)[O-])[C@@H](O[C@@H]([C@@H]1O)[C@@H](CO)O2)O[C@@H]9CO)O[C@@H]8CO)O[C@@H]7CO)O[C@@H]6CO)O[C@@H]5CO)O[C@@H]4CO)O[C@@H]3CO.[Na+].[Na+].[Na+].[Na+].[Na+].[Na+].[Na+].[Na+] [Example 4, Octakis per-2-O-(2-carboxybenzyl)-γ-cyclodextrin, Na salt] | 84 | (15) μmol · kg^−1 | 3.4 | – | – | –
O=C([O-])c1ccc(CO[C@H]2[C@H]3O[C@H]4[C@H](O)[C@@H](O)[C@@H](O[C@H]5[C@H](O)[C@@H](O)[C@@H](O[C@H]6[C@H](O)[C@@H](O)[C@@H](O[C@H]7[C@H](O)[C@@H](O)[C@@H](O[C@H]8[C@H](O)[C@@H](O)[C@@H](O[C@H]9[C@H](O)[C@@H](O)[C@@H](O[C@H]%10[C@H](O)[C@@H](O)[C@@H](O[C@@H]([C@@H]2O)[C@@H](CO)O3)O[C@@H]%10CO)O[C@@H]9CO)O[C@@H]8CO)O[C@@H]7CO)O[C@@H]6CO)O[C@@H]5CO)O[C@@H]4CO)cc1.[Na+] [Example 5, Mono-2-O-(4-carboxybenzyl)-γ-cyclodextrin sodium salt] | 96 | (2.6) μmol · kg^−1 | 0.25 | – | – | –
O=C([O-])CCSCCCO[C@H]1[C@H]2O[C@H]3[C@H](O)[C@@H](OCCCSCCC(=O)[O-])[C@@H](O[C@H]4[C@H](O)[C@@H](OCCCSCCC(=O)[O-])[C@@H](O[C@H]5[C@H](O)[C@@H](OCCCSCCC(=O)[O-])[C@@H](O[C@H]6[C@H](O)[C@@H](OCCCSCCC(=O)[O-])[C@@H](O[C@H]7[C@H](O)[C@@H](OCCCSCCC(=O)[O-])[C@@H](O[C@H]8[C@H](O)[C@@H](OCCCSCCC(=O)[O-])[C@@H](O[C@H]9[C@H](O)[C@@H](OCCCSCCC(=O)[O-])[C@@H](O[C@@H]([C@@H]1O)[C@@H](CO)O2)O[C@@H]9CO)O[C@@H]8CO)O[C@@H]7CO)O[C@@H]6CO)O[C@@H]5CO)O[C@@H]4CO)O[C@@H]3CO.[Na+].[Na+].[Na+].[Na+].[Na+].[Na+].[Na+].[Na+] [Example 6, Octakis per-2-O-(6-carboxy-4-thia-hexyl)-γ-cyclodextrin, Na salt] | – | – | – | 86 | (16) μmol · kg^−1 | 3.4
O=C([O-])CSCCCO[C@H]1[C@H]2O[C@H]3[C@H](O)[C@@H](OCCCSCC(=O)[O-])[C@@H](O[C@H]4[C@H](O)[C@@H](OCCCSCC(=O)[O-])[C@@H](O[C@H]5[C@H](O)[C@@H](OCCCSCC(=O)[O-])[C@@H](O[C@H]6[C@H](O)[C@@H](OCCCSCC(=O)[O-])[C@@H](O[C@H]7[C@H](O)[C@@H](OCCCSCC(=O)[O-])[C@@H](O[C@H]8[C@H](O)[C@@H](OCCCSCC(=O)[O-])[C@@H](O[C@H]9[C@H](O)[C@@H](OCCCSCC(=O)[O-])[C@@H](O[C@@H]([C@@H]1O)[C@@H](CO)O2)O[C@@H]9CO)O[C@@H]8CO)O[C@@H]7CO)O[C@@H]6CO)O[C@@H]5CO)O[C@@H]4CO)O[C@@H]3CO.[Na+].[Na+].[Na+].[Na+].[Na+].[Na+].[Na+].[Na+] [Example 7, Octakis per-2-O-(5-carboxy-4-thia-pentyl)-γ-cyclodextrin, Na salt] | 91 | (10) μmol · kg^−1 | 1.12 | – | – | –
O=S(=O)([O-])CCSCCCO[C@H]1[C@H]2O[C@H]3[C@H](O)[C@@H](OCCCSCCS(=O)(=O)[O-])[C@@H](O[C@H]4[C@H](O)[C@@H](OCCCSCCS(=O)(=O)[O-])[C@@H](O[C@H]5[C@H](O)[C@@H](OCCCSCCS(=O)(=O)[O-])[C@@H](O[C@H]6[C@H](O)[C@@H](OCCCSCCS(=O)(=O)[O-])[C@@H](O[C@H]7[C@H](O)[C@@H](OCCCSCCS(=O)(=O)[O-])[C@@H](O[C@H]8[C@H](O)[C@@H](OCCCSCCS(=O)(=O)[O-])[C@@H](O[C@H]9[C@H](O)[C@@H](OCCCSCCS(=O)(=O)[O-])[C@@H](O[C@@H]([C@@H]1O)[C@@H](CO)O2)O[C@@H]9CO)O[C@@H]8CO)O[C@@H]7CO)O[C@@H]6CO)O[C@@H]5CO)O[C@@H]4CO)O[C@@H]3CO.[Na+].[Na+].[Na+].[Na+].[Na+].[Na+].[Na+].[Na+] [Example 8, Octakis per-2-O-(6-sulfo-4-thia-hexyl)-γ-cyclodextrin, Na salt] | 85 | (4.5) μmol · kg^−1 | 1.4 | – | – | –
OCC(O)CSCCCO[C@H]1[C@H]2O[C@H]3[C@H](O)[C@@H](OCCCSCC(O)CO)[C@@H](O[C@H]4[C@H](O)[C@@H](OCCCSCC(O)CO)[C@@H](O[C@H]5[C@H](O)[C@@H](OCCCSCC(O)CO)[C@@H](O[C@H]6[C@H](O)[C@@H](OCCCSCC(O)CO)[C@@H](O[C@H]7[C@H](O)[C@@H](OCCCSCC(O)CO)[C@@H](O[C@H]8[C@H](O)[C@@H](OCCCSCC(O)CO)[C@@H](O[C@@H]([C@@H]1O)[C@@H](CO)O2)O[C@@H]8CO)O[C@@H]7CO)O[C@@H]6CO)O[C@@H]5CO)O[C@@H]4CO)O[C@@H]3CO (stereo partly drawn) [Example 9, Heptakis per-2-O-(6,7-dihydroxy-4-thia-heptyl)-β-cyclodextrin] | 93 | (6.4) μmol · kg^−1 | 1.10 | – | – | –
